# Patent US20110201818A1, “POLO-LIKE KINASE INHIBITORS” (TAKEDA PHARMACEUTICAL COMPANY LIMITED, priority 2007, published 2011)
# Target: T1, human PLK1 (Homo sapiens, UniProt P53350)
# T1 construct: FLAG (DYKDDDDK) (N); made in house; host or cells: Sf21 insect cells, recombinant baculovirus (pFASTBAC1, Bac-to-Bac)
# Assay: PLK1 in vitro enzymatic activity assay (phosphorylation of alpha casein by recombinant PLK1)
# Type: biochemical
# Conditions: recombinant FLAG-tagged PLK1, alpha casein substrate, 500 nmol/L ATP, 40 min at room temperature; read-out: pIC50 (PLK1) (converted)
# How it was run: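 Recombinant PLK1 from baculovirus-infected Sf21 cells (50 ng) phosphorylated 3 μg alpha casein for 40 min at room temperature in HEPES pH 7.5, Mg acetate, DTT buffer with 500 nmol/L ATP plus [γ-32P]ATP. TCA-precipitated phosphoprotein was filter-captured, washed, and counted by scintillation.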
# T1 sequence (P53350 with tags, fused parts or gaps): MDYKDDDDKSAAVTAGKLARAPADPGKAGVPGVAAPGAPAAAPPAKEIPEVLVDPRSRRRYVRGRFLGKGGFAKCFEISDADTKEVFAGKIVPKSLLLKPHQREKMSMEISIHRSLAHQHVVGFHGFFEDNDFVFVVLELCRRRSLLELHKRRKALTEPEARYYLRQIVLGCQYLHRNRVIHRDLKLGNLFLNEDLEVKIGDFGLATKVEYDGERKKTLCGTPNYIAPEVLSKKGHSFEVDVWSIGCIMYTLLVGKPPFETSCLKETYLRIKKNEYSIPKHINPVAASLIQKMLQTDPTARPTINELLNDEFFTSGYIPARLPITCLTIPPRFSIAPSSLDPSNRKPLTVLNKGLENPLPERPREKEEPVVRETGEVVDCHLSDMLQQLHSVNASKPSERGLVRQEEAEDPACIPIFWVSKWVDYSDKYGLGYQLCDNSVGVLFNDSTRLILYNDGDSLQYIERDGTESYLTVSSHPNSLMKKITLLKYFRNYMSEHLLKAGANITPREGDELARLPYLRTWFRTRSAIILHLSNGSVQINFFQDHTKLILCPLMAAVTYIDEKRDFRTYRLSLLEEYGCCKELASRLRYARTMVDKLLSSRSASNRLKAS
row,SMILES,IC50
1,"COc1cc(C(=O)NN(C)C)ccc1Nc1ncc2c(n1)N(C1CCCCC1)CC(F)(F)C(=O)N2C [Compound 61, 4-(9-cyclohexyl-7,7-difluoro-5-methyl-6-oxo-6,7,8,9-tetrahydro-5H-pyrimido[4,5-b][1,4]diazepin-2-ylamino)-3-methoxy-N′,N′-dimethylbenzohydrazide]",≤ 2 nM
2,"CN1CCC(NC(=O)c2ccc(Nc3ncc4c(n3)N(C3CCCC3)CC(F)(F)C(=O)N4C)c(C(F)(F)F)c2)CC1 [Compound 30, 4-(9-cyclopentyl-7,7-difluoro-5-methyl-6-oxo-6,7,8,9-tetrahydro-5H-pyrimido[4,5-b][1,4]diazepin-2-ylamino)-N-(1-methylpiperidin-4-yl)-3-(trifluoromethyl)benzamide]",> 2 nM
3,"C=C[C@@]1(F)CN(C2CCCC2)c2nc(Nc3ccc(C(=O)NC4CCN(CC)CC4)cc3OC)ncc2N(C)C1=O [Compound 105, (R)-4-(9-cyclopentyl-7-fluoro-5-methyl-6-oxo-7-vinyl-6,7,8,9-tetrahydro-5H-pyrimido[4,5-b][1,4]diazepin-2-ylamino)-N-(1-ethylpiperidin-4-yl)-3-methoxybenzamide]",≤ 2 nM
4,"CNC(=O)c1ccc(Nc2ncc3c(n2)N(C2CCCCC2)CC(F)(F)C(=O)N3C)c(OC)c1 [Compound 60, 4-(9-cyclohexyl-7,7-difluoro-5-methyl-6-oxo-6,7,8,9-tetrahydro-5H-pyrimido[4,5-b][1,4]diazepin-2-ylamino)-3-methoxy-N-methylbenzamide]",≤ 2 nM
5,"CCc1cc(C(=O)NC2CCN(C)CC2)ccc1Nc1ncc2c(n1)N(C1CCCC1)CC(F)(F)C(=O)N2C [Compound 27, 4-(9-Cyclopentyl-7,7-difluoro-5-methyl-6-oxo-6,7,8,9-tetrahydro-5H-pyrimido[4,5-b][1,4]diazepin-2-ylamino)-3-ethyl-N-(1-methylpiperidin-4-yl)benzamide]",≤ 2 nM
6,"Cc1cc(C(=O)NC2CCN(C)CC2)ccc1Nc1ncc2c(n1)N(C1CCCC1)CC(F)(F)C(=O)N2C [Compound 26, 4-(9-Cyclopentyl-7,7-difluoro-5-methyl-6-oxo-6,7,8,9-tetrahydro-5H-pyrimido[4,5-b][1,4]diazepin-2-ylamino)-3-methyl-N-(1-methylpiperidin-4-yl)benzamide]",> 2 nM
7,"CCOc1cc(C(=O)NC2CCN(C)CC2)ccc1Nc1ncc2c(n1)N(C1CCCC1)CC(F)(F)C(=O)N2C [Compound 29, 4-(9-Cyclopentyl-7,7-difluoro-5-methyl-6-oxo-6,7,8,9-tetrahydro-5H-pyrimido[4,5-b][1,4]diazepin-2-ylamino)-3-ethoxy-N-(1-methylpiperidin-4-yl)benzamide]",> 2 nM
8,"COc1cc(C(=O)NC2CCCNCC2)ccc1Nc1ncc2c(n1)N(C1CCCC1)CC(F)(F)C(=O)N2C (centres unmarked) [Compound 14, N-(Azepan-4-yl)-4-(9-cyclopentyl-7,7-difluoro-5-methyl-6-oxo-6,7,8,9-tetrahydro-5H-pyrimido[4,5-b][1,4]diazepin-2-ylamino)-3-methoxybenzamide]",≤ 2 nM
9,"COc1cc(C(=O)NN2CCN(C)CC2)ccc1Nc1ncc2c(n1)N(C1CCCCC1)CC(F)(F)C(=O)N2C [Compound 34, 4-(9-cyclohexyl-7,7-difluoro-5-methyl-6-oxo-6,7,8,9-tetrahydro-5H-pyrimido[4,5-b][1,4]diazepin-2-ylamino)-3-methoxy-N-(4-methylpiperazin-1-yl)benzamide]",≤ 2 nM
10,"CCC1(F)CN(C2CCCCC2)c2nc(Nc3ccc(C(=O)NC4CCN(C)CC4)cc3OC)ncc2N(C)C1=O (centres unmarked) [Compound 96, 4-(9-Cyclohexyl-7-ethyl-7-fluoro-5-methyl-6-oxo-6,7,8,9-tetrahydro-5H-pyrimido[4,5-b][1,4]diazepin-2-ylamino)-3-methoxy-N-(1-methylpiperidin-4-yl)benzamide]",> 2 nM
11,"COc1cc(C(=O)O)c(F)cc1Nc1ncc2c(n1)N(C1CCCC1)CC(F)(F)C(=O)N2C [Compound 31, 4-(9-Cyclopentyl-7,7-difluoro-5-methyl-6-oxo-6,7,8,9-tetrahydro-5H-pyrimido[4,5-b][1,4]diazepin-2-ylamino)-2-fluoro-5-methoxybenzoic acid]",≤ 2 nM
12,"COc1cc(C(=O)N[C@@H]2CCCN(C)C2)ccc1Nc1ncc2c(n1)N(C1CCCCC1)CC(F)(F)C(=O)N2C [Compound 75, (R)-4-(9-cyclohexyl-7,7-difluoro-5-methyl-6-oxo-6,7,8,9-tetrahydro-5H-pyrimido[4,5-b][1,4]diazepin-2-ylamino)-3-methoxy-N-(1-methylpiperidin-3-yl)benzamide]",≤ 2 nM
13,"COc1cc(C(=O)N[C@@H]2CCCNC2)ccc1Nc1ncc2c(n1)N(C1CCCC1)CC(F)(F)C(=O)N2C [Compound 8, (R)-4-(9-cyclopentyl-7,7-difluoro-5-methyl-6-oxo-6,7,8,9-tetrahydro-5H-pyrimido[4,5-b][1,4]diazepin-2-ylamino)-3-methoxy-N-(piperidin-3-yl)benzamide]",≤ 2 nM
14,"CCC1(F)CN(C2CCCC2)c2nc(Nc3ccc(C(=O)NC4CN(C)C4)cc3OC)ncc2N(C)C1=O (centres unmarked) [Compound 95, 4-(9-Cyclopentyl-7-ethyl-7-fluoro-5-methyl-6-oxo-6,7,8,9-tetrahydro-5H-pyrimido[4,5-b][1,4]diazepin-2-ylamino)-3-methoxy-N-(1-methylazetidin-3-yl)benzamide]",≤ 2 nM
15,"COc1cc(C(=O)NC2CCNCC2)ccc1Nc1ncc2c(n1)N(C1CCCCC1)CC(F)(F)C(=O)N2C [Compound 70, 4-(9-cyclohexyl-7,7-difluoro-5-methyl-6-oxo-6,7,8,9-tetrahydro-5H-pyrimido[4,5-b][1,4]diazepin-2-ylamino)-3-methoxy-N-(piperidin-4-yl)benzamide]",≤ 2 nM
16,"COc1cc(C(=O)NC2CC2)ccc1Nc1ncc2c(n1)N(C1CCCC1)CC(F)(F)C(=O)N2C [Compound 2, 4-(9-cyclopentyl-7,7-difluoro-5-methyl-6-oxo-6,7,8,9-tetrahydro-5H-pyrimido[4,5-b][1,4]diazepin-2-ylamino)-N-cyclopropyl-3-methoxybenzamide]",> 2 nM

# Results, then the compound that gave them:
row,IC50,SMILES
1,> 2 nM,"COc1cc(C(=O)NC2CCN(CC(=O)N(C)C)CC2)ccc1Nc1ncc2c(n1)N(C1CCCC1)CC(F)(F)C(=O)N2C [Compound 115, 4-(9-cyclopentyl-7,7-difluoro-5-methyl-6-oxo-6,7,8,9-tetrahydro-5H-pyrimido[4,5-b][1,4]diazepin-2-ylamino)-N-(1-(2-(dimethylamino)-2-oxoethyl)piperidin-4-yl)-3-methoxybenzamide]"
2,> 2 nM,"COc1cc(C(=O)N2CCN(CC3CC3)CC2)ccc1Nc1ncc2c(n1)N(C1CCCC1)CC(F)(F)C(=O)N2C [Compound 134, 9-cyclopentyl-2-(4-(4-(cyclopropylmethyl)piperazine-1-carbonyl)-2-methoxyphenylamino)-7,7-difluoro-5-methyl-8,9-dihydro-5H-pyrimido[4,5-b][1,4]diazepin-6(7H)-one]"
3,≤ 2 nM,"COc1cc(C(=O)NC2CCN(CCO)CC2)c(F)cc1Nc1ncc2c(n1)N(C1CCCC1)CC(F)(F)C(=O)N2C [Compound 117, 4-(9-Cyclopentyl-7,7-difluoro-5-methyl-6-oxo-6,7,8,9-tetrahydro-5H-pyrimido[4,5-b][1,4]diazepin-2-ylamino)-2-fluoro-N-(1-(2-hydroxyethyl)piperidin-4-yl)-5-methoxybenzamide]"
4,≤ 2 nM,"C=C[C@@]1(F)CN(C2CCCC2)c2nc(Nc3ccc(C(=O)NC4CCN(CCOP(=O)(O)O)CC4)cc3OC)ncc2N(C)C1=O [Compound 111, (R)-2-(4-(4-(9-cyclopentyl-7-fluoro-5-methyl-6-oxo-7-vinyl-6,7,8,9-tetrahydro-5H-pyrimido[4,5-b][1,4]diazepin-2-ylamino)-3-methoxybenzamido)piperidin-1-yl)ethyl dihydrogen phosphate]"
5,≤ 2 nM,"C=C[C@@]1(F)CN(C2CCCC2)c2nc(Nc3cc(F)c(C(=O)NC4CCN(C)CC4)cc3OC)ncc2N(C)C1=O [Compound 113, (R)-4-(9-cyclopentyl-7-fluoro-5-methyl-6-oxo-7-vinyl-6,7,8,9-tetrahydro-5H-pyrimido[4,5-b][1,4]diazepin-2-ylamino)-2-fluoro-5-methoxy-N-(1-methylpiperidin-4-yl)benzamide]"
6,≤ 2 nM,"COc1cc(C(=O)NC2CN(C(C)C)C2)ccc1Nc1ncc2c(n1)N(C1CCCCC1)CC(F)(F)C(=O)N2C [Compound 125, 4-(9-cyclohexyl-7,7-difluoro-5-methyl-6-oxo-6,7,8,9-tetrahydro-5H-pyrimido[4,5-b][1,4]diazepin-2-ylamino)-N-(1-isopropylazetidin-3-yl)-3-methoxybenzamide]"
7,> 2 nM,COc1cc(C(=O)NC2CCN(CC(N)=O)CC2)ccc1Nc1ncc2c(n1)N(C1CCCC1)CC(F)(F)C(=O)N2C [Compound 114]
8,> 2 nM,"COc1c(Nc2ncc3c(n2)N(C2CCCC2)CC(F)(F)C(=O)N3C)ccc(C(=O)O)c1F [Compound 123, 4-(9-Cyclopentyl-7,7-difluoro-5-methyl-6-oxo-6,7,8,9-tetrahydro-5H-pyrimido[4,5-b][1,4]diazepin-2-ylamino)-2-fluoro-3-methoxybenzoic acid]"
9,> 2 nM,"COc1cc(C(=O)N[C@@H]2CCCNC2)c(F)cc1Nc1ncc2c(n1)N(C1CCCC1)CC(F)(F)C(=O)N2C [Compound 119, (R)-4-(9-cyclopentyl-7,7-difluoro-5-methyl-6-oxo-6,7,8,9-tetrahydro-5H-pyrimido[4,5-b][1,4]diazepin-2-ylamino)-2-fluoro-5-methoxy-N-(piperidin-3-yl)benzamide]"
10,> 2 nM,"CCN1CC(NC(=O)c2ccc(Nc3ncc4c(n3)N(C3CCCCC3)CC(F)(F)C(=O)N4C)c(OC)c2)C1 [Compound 126, 4-(9-cyclohexyl-7,7-difluoro-5-methyl-6-oxo-6,7,8,9-tetrahydro-5H-pyrimido[4,5-b][1,4]diazepin-2-ylamino)-N-(1-ethylazetidin-3-yl)-3-methoxybenzamide]"
